From patent US11319300B2, “Polyfluoro-substituted aromatic heterocyclic derivative, pharmaceutical composition containing same, and applications thereof” (ZHEJIANG UNIVERSITY, priority 2017, dated 2022) come the findings set out here.

Data set [1] deals with T1, AKT1/PKBα (Homo sapiens, UniProt P31749).
T1 construct: purchased
Kind of data set: Akt1 enzyme inhibitory activity, AKT1/PKBα KinEASE FP Fluorescein Green Assay. In kind it is biochemical. To be noted: fluorescence polarization kit assay; read-out: Akt1 IC50 (grade). As to the method:
Compound AZD5363 (NCT02208375, NCT02208375, NCT01625286), which have entered the clinical phase II study, was used as a positive control, and the compound was assayed against common tumour cell lines (human ovarian cancer cell line OVCAR-8 and human colon cancer cell line HCT-116) by MTT assay, at the same time, the akt1 enzyme inhibitory activity (IC50) was evaluated using a commercial Akt1 kit.
2) Test method for the inhibitory activity of the compound of the present invention against Akt1 enzyme:
The AKT1/PKBα KinEASE™ FP Fluorescein Green Assay (Kinase Green Fluorescence Detection System) was used to detect the inhibitory activity of the compound on AKT1/PKBα.
Fluorescence polarization detection protein kinase B employs the principle of a competitive reaction: a fluorescently labeled phosphorylated tracer and an unlabeled phosphorylated product produced by the reaction of protein kinase B will compete with the anti-serine antibody for binding. In a reaction mixture […], when a part of the fluorescent tracer binds to the antibody, it causes a higher polarization value. However, in the reaction solution mixture containing the phosphorylated product, less tracer binds to the antibody (the fluorescent tracer was replaced from the antibody) and the emitted signal was depolarized. Therefore, the change in polarization was directly related to the activity of protein kinase B in the reaction.
The compound of the present invention and the positive control AZD5363 were dissolved in dimethyl sulfoxide (DMSO) and diluted to a concentration of 50 μM. At room temperature, 0.25 μl of the compound sample and the positive control at a concentration of 50 μM were taken and added to the 384-well plate, and three parallel wells were set for each sample, and then 10 μl of STK Substrate 3, Working Solution, 5 μl AKT1/PKBα Working Solution, 10 μl ATP Working Solution were added to each sample well plate with vibrating gently and shaking for a few minutes. The reaction starts after 10 μl of ATP Working Solution was added to the well, and the reaction was timed at room temperature for 1 hour. After one hour, 5 μl of STK Stop Mix and 5 μl of STK Antibody Mix were added to each well respectively to stop the reaction. After the addition completes, it was allowed to stand at room temperature for four hours, and the polarization value of the sample was detected by the fluorescence polarization of the microplate reader (it was effective to detect its signal within 24 hours), and the inhibition rate of the compound was calculated by the polarization value, and then IC50 was calculated.
Four sets of controls were set in the experiment, namely Buffer Control Wells, Tracer Control Wells, No Enzyme Wells, and a blank dimethyl sulfoxide control. The resulting data was used to calculate the inhibition rate.
The activity of the compound was divided into three grades according to the size of the IC50 of the Akt inhibitory activity: “+++”, 1 nM<IC50<10 nM; “++”, 10 nM<IC50<50 nM; “+”, 50 nM<IC50.
For orientation: Fluorescence polarisation rises when a labelled molecule tumbles more slowly, as on binding a larger partner.

Data set [2] has as its system HGC27. Nature of the data set: Tumour cell proliferation inhibition, MTT assay, HGC27. Type of data set: cell-based, human. To be noted: Homo sapiens, HGC-27, 72 h. In general terms: Tetrazolium assays rely on reduction of a dye to a coloured formazan, in cell work by metabolically active cells.
The test system of data set [3] is CEM-C1. Kind of data set: Tumour cell proliferation inhibition, MTT assay, CEM-C1. In kind it is cell-based, human. To be noted: Homo sapiens, CEM/C1, 72 h.
Data set [4] in a line: Oral pharmacokinetic experiment in SD rats. Type of data set: in vivo. To be noted: oral administration. As to the method:
[…] The blood sampling times of the tail vein administered by intragastric administration were 0.25, 0.5, 1, 2, 4, 6, 8, 10, 24 hours; the times of blood collection by intravenous administration were 0.05, 0.1, 0.17, 0.5, 1, 2, 4, 6, 8, 10, 24 hours. 0.3 ml of whole blood was taken, and after centrifugation, 0.1 ml of plasma was taken and analysed by LC-MS.

[5] abbreviates: rat, in vivo, 20 mg/kg, mean n = 3.

Molecules are shown by their SMILES.

T1 sequence (P31749 whole entry): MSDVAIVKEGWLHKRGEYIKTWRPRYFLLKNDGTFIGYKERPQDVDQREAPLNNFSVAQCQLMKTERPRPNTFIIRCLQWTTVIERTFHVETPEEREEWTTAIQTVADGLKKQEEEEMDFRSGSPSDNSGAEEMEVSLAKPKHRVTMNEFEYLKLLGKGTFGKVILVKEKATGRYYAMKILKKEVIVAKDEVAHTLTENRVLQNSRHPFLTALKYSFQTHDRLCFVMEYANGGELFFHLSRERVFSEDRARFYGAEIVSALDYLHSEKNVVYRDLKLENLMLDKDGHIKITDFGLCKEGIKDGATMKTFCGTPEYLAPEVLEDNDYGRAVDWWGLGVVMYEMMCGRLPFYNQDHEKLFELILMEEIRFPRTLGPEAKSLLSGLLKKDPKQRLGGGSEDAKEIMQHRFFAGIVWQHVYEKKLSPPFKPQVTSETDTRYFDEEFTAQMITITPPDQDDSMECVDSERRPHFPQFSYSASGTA

What is called IC50 is the concentration needed to halve the response being measured. For the compound `Cn1nccc1-c1ccc(C(=O)N[C@H]2CNCC[C@@H]2c2ccc(F)c(F)c2)c(F)c1` [VII-1b, 4-(1-methyl-1H-pyrazole-yl)-N-((3R,4R)-(3,4-difluorophenyl)piperidin-3-yl)-2-fluorobenzamide], the IC50 in data set [1] lay within 0.01 to 0.05 µM.

Turning to `Cn1ncc(Cl)c1-c1ccc(C(=O)N[C@@H]2CNCC[C@H]2c2ccc(F)c(F)c2)c(F)c1` [VII-2, 4-(1-methyl-4-chloro-1H-pyrazole-yl)-N-((3S,4S)-(3,4-difluorophenyl)piperidin-3-yl)-2-fluorobenzamide], the values for the half-maximal inhibitory concentration (IC50) in data set [1] and in data set [2] were 0.01 to 0.05 µM and 0.07 µM, respectively.

Turning to `Cc1cnn(C)c1-c1ccc(C(=O)N[C@@H]2CNCC[C@H]2c2ccc(F)c(F)c2)c(F)c1` [VII-3, 4-(1,4-dimethyl-1H-pyrazole-yl)-N-((3S,4S)-4-(3,4-difluorophenyl)piperidin-3-yl)-2-fluorobenzamide], the values for the half-maximal inhibitory concentration (IC50) in data set [1], in data set [2] and in data set [3] were 0.01 to 0.05 µM, 0.09 µM and 0.16 µM, respectively.

Turning to `Cn1ncc(C2CC2)c1-c1ccc(C(=O)N[C@@H]2CNCC[C@H]2c2ccc(F)c(F)c2)c(F)c1` [VII-4], the half-inhibitory concentration (IC50) in data set [1] is > 0.05 µM.

Regarding `Cn1ncc(Br)c1-c1ccc(C(=O)N[C@@H]2CNCC[C@H]2c2ccc(F)c(F)c2)c(F)c1` [VII-6, 4-(1-methyl-4-bromo-1H-pyrazole-yl)-N-((3S,4S)-(3,4-difluorophenyl)piperidin-3-yl)-2-fluorobenzamide], the half-inhibitory concentration (IC50) is 0.01 to 0.05 µM in data set [1], 0.04 µM in data set [2] and 0.15 µM in data set [3].

On to `Cn1nccc1-c1ccc(C(=O)N[C@@H]2CNCC[C@H]2c2c(F)c(F)cc(F)c2F)c(F)c1` [VII-9, 4-(1-methyl-1H-pyrazole-yl)-N-((3S,4S)-(2,3,5,6-tetrafluorophenyl)piperidin-3-yl)-2-fluorobenzamide], for which the IC50 in data set [1] is 0.01 to 0.05 µM; in data set [2], 0.08 µM; in data set [3], 0.21 µM.

In the case of `Cn1nccc1-c1cc(F)c(C(=O)N[C@@H]2CNCC[C@H]2c2ccc(F)c(F)c2)c(F)c1F` [VII-13, 4-(1-methyl-1H-pyrazole-yl)-N-((3S,4S)-4-(3,4-difluorophenyl)piperidin-3-yl)-2,3,6-trifluorobenzamide], the IC50 in data set [1] was > 0.05 µM.

On to `Cn1nccc1-c1cc(F)c(C(=O)N[C@@H]2CNCC[C@H]2c2ccc(F)c(F)c2)c(Cl)c1` [VII-14], for which the half-inhibitory concentration (IC50) is 0.01 to 0.05 µM in data set [1], 0.1 µM in data set [2] and 0.18 µM in data set [3].

`Cc1cc(-c2ccnn2C)cc(F)c1C(=O)N[C@@H]1CNCC[C@H]1c1ccc(F)c(F)c1` [VII-15, 4-(1-methyl-1H-pyrazole-yl)-N-((3S,4S)-4-(3,4-difluorophenyl)piperidin-3-yl)-2-methyl-6-fluorobenzamide]: the half-inhibitory concentration (IC50) in data set [1] is > 0.05 µM.

As to `Cn1nccc1-c1cc(F)c(C(=O)N[C@@H]2CNCC[C@H]2c2ccc(F)c(F)c2)c(C(F)(F)F)c1` [VII-16, 4-(1-methyl-1H-pyrazole-yl)-N-((3S,4S)-4-(3,4-difluorophenyl)piperidin-3-yl)-2-trifluoromethyl-6-fluorobenzamide], the IC50 was 0.01 to 0.05 µM in data set [1], 0.08 µM in data set [2] and 0.11 µM in data set [3].

With `Cn1nccc1-c1ccc(C(=O)N[C@@H]2CNCC[C@H]2c2ccc(F)c(F)c2)c(F)c1F` [VII-17, 4-(1-methyl-1H-pyrazole-yl)-N-((3S,4S)-4-(3,4-difluorophenyl)piperidin-3-yl)-2,3-difluorobenzamide], the IC50 in data set [1] was 0.01 to 0.05 µM; in data set [2], 0.04 µM; in data set [3], 0.09 µM.

In the case of `Cn1ncc(Cl)c1-c1ccc(C(=O)N[C@@H]2CNC[C@H]2c2ccc(F)c(F)c2)c(F)c1` [VII-19, 4-(1-methyl-4-chloro-1H-pyrazole-yl)-N-((3S,4R)-(3,4-difluorophenyl)pyrrolidin-3-yl)-2-fluorobenzamide], the IC50 was 0.01 to 0.05 µM in data set [1], 0.02 µM in data set [2] and 0.06 µM in data set [3].

For `Cn1nccc1-c1cc(F)c(C(=O)N[C@@H]2CNC[C@H]2c2ccc(F)c(F)c2)c(F)c1` [VII-21, 4-(1-methyl-1H-pyrazole-yl)-N-((3S,4R)-(3,4-difluorophenyl)pyrrolidin-3-yl)-2,6-difluorobenzamide], the IC50 in data set [1] is 0.01 to 0.05 µM; in data set [2], 0.08 µM; in data set [3] it was 0.15 µM.

Consider `Cn1nccc1-c1ccc(S(=O)(=O)N[C@@H]2CNCC[C@H]2c2ccc(F)c(F)c2)c(F)c1` [VII-23, N-((3S,4S)-4-(3,4-difluorophenyl)piperidin-3-yl)-2-fluoro-4-(1-methyl-1H-pyrazol-5-yl)benzenesulfonamide], for which the IC50 in data set [1] was > 0.05 µM.

On to `Cn1ncnc1-c1ccc(C(=O)N[C@@H]2CNCC[C@H]2c2ccc(F)c(F)c2)c(F)c1` [VII-26], for which the IC50 in data set [1] is 0.01 to 0.05 µM; in data set [2], 0.07 µM; in data set [3], 0.07 µM.

Regarding `CCn1nccc1-c1ccc(C(=O)N[C@@H]2CNCC[C@H]2c2ccc(F)c(F)c2)c(F)c1` [VII-27, 4-(1-ethyl-1H-pyrazole-yl)-N-((3S,4S)-4-(3,4-difluorophenyl)piperidin-3-yl)-2-fluorobenzamide], the results for the IC50 in data set [1], in data set [2] and in data set [3] were 0.01 to 0.05 µM, 0.09 µM and 0.13 µM, respectively.

`O=C(N[C@@H]1CNCC[C@H]1c1ccc(F)c(F)c1)c1ccc(-c2ccnn2C2CC2)cc1F` [VII-28, 4-(1-cyclopropyl-1H-pyrazol-yl)-N-((3S,4S)-4-(3,4-difluorophenyl)piperidin-3-yl)-2-fluorobenzamide]: the IC50 in data set [1] was 0.01 to 0.05 µM; in data set [2], 0.05 µM; in data set [3], 0.1 µM.

For `[2H]C([2H])([2H])n1nccc1-c1ccc(C(=O)N[C@@H]2CNCC[C@H]2c2ccc(F)c(F)c2)c(F)c1` [VII-29, 4-(1-(methyl-d3)-1H-pyrazol-yl)-N-((3S,4S)-4-(3,4-difluorophenyl)piperidin-3-yl)-2 fluorobenzamide], the half-maximal inhibitory concentration (IC50) in data set [1] is 0.01 to 0.05 µM; in data set [2], 0.04 µM; in data set [3] it was 0.06 µM.

As usually defined, the Cmax is the maximum level reached in the sampled fluid or tissue. A word on the Tmax: it is the time from dosing to the highest level. `Cn1nccc1-c1ccc(C(=O)N[C@@H]2CNCC[C@H]2c2ccc(F)c(F)c2)c(F)c1.O=C(O)C(O)C(O)C(=O)O` [VII-33]: in data set [4] (20 mg/kg, mean n = 3), the “1/2” value came to 3.69 h, the AUC0-inf is 2160 ng·h/mL and the AUC0-t is 1950 ng·h/mL. The “improvement of AUC0-t over VII-1a” value in data set [4] (salt versus free form VII-1a) is reported as 30%. For the same compound, in data set [4] (setting [5]), the highest level (Cmax) was 200 ng/mL and the Tmax was determined as 4 h.
